Reference: ChEMBL document CHEMBL2073845, “Structure, function, and regional distribution of the organic cation transporter OCT3 in the kidney” (Am J Physiol Renal Physiol, 2000)

Tests used:
OCT3 (SLC22A3) [1] = target: T1, OCT3 (SLC22A3) (Mus musculus, UniProt Q9WTW5); test: TP_TRANSPORTER: inhibition of TEA uptake (TEA: 20 uM, MPTP: 5000 uM) in OCT3-expressing HRPE cells; format: functional, cell-based; settings: human, HRPE cells that express OCT3, probe TEA
T1 sequence (Q9WTW5 whole entry): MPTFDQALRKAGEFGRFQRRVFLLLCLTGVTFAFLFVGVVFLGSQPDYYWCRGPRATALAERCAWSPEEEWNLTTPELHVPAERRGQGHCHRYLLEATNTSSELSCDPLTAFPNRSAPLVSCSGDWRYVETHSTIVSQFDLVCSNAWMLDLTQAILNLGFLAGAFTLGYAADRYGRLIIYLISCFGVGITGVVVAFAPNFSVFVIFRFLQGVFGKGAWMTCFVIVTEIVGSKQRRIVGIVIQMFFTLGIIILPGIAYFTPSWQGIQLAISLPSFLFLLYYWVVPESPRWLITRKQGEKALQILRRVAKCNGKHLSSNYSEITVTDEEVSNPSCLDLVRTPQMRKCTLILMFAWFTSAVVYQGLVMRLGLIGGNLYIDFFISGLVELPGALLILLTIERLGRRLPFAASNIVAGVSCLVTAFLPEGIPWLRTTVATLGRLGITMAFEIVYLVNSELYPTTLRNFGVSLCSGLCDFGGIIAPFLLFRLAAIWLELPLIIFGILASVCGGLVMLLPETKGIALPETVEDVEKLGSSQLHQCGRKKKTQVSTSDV

OCT3 (SLC22A3) [2] = target: T1, OCT3 (SLC22A3); test: TP_TRANSPORTER: inhibition of TEA uptake (TEA: 20 uM, MPP+: 5000 uM) in OCT3-expressing HRPE cells; format: functional, cell-based; settings: human, HRPE cells that express OCT3, probe TEA
[3] = target: T2, Solute carrier family 22 member 3 (Mus musculus, UniProt Q9WTW5); test: TP_TRANSPORTER: uptake in Xenopus laevis oocytes; format: functional, cell-based; settings: oocyte
T2 sequence (Q9WTW5 whole entry): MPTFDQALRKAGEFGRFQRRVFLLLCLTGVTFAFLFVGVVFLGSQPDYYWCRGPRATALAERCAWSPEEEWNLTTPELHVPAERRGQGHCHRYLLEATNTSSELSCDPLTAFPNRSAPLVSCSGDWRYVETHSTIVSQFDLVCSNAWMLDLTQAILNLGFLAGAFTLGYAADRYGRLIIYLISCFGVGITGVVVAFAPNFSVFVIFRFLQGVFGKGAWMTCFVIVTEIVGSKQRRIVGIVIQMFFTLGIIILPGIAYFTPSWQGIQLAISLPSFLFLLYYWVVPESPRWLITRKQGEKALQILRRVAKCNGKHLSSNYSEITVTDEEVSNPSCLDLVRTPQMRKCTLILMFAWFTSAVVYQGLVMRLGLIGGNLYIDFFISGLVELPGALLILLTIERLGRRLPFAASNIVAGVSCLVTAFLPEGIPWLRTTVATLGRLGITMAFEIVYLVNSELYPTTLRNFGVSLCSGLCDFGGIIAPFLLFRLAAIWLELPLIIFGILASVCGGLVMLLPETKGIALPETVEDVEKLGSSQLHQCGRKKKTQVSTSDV

[4] = target: T3, Solute carrier family 22 member 3 (Homo sapiens, UniProt O75751); test: TP_TRANSPORTER: inhibition of MPP+ uptake in OCT3-expressing HRPE cells; format: functional, cell-based
T3 sequence (O75751 whole entry): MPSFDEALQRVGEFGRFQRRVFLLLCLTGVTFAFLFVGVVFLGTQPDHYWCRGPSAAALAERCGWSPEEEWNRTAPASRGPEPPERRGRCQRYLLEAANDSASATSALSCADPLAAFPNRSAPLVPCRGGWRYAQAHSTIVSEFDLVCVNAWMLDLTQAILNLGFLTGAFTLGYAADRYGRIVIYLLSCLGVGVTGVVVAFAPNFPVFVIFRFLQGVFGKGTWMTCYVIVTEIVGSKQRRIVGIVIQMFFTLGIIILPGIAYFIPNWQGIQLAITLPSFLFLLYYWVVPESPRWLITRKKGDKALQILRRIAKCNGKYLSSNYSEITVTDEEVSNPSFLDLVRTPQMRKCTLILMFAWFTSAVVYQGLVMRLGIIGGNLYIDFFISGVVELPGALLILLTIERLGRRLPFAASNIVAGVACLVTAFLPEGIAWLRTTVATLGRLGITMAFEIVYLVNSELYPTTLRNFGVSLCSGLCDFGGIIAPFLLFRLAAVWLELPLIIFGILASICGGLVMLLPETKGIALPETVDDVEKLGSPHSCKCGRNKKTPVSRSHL

OCT3 (SLC22A3) [5] = target: T1, OCT3 (SLC22A3); test: in vitro; settings: human, HRPE cells that express OCT3, probe TEA
OCT3 (SLC22A3) [6] = target: T1, OCT3 (SLC22A3); test: in vitro; settings: human, HRPE cells that express OCT3, probe TEA; remark: listed apart in the source
[7] = target: T2, Solute carrier family 22 member 3; test: TP_TRANSPORTER: inhibition of TEA uptake (TEA: 20 uM, Guanidine: 5000 uM) in OCT3-expressing HRPE cells; format: functional, cell-based; settings: human
[8] = target: T2, Solute carrier family 22 member 3; test: TP_TRANSPORTER: inhibition of TEA uptake (TEA: 20 uM, NMN: 5000 uM) in OCT3-expressing HRPE cells; format: functional, cell-based; settings: human
[9] = target: T3, Solute carrier family 22 member 3; test: TP_TRANSPORTER: uptake in OCT3-expressing HRPE cells; format: functional, cell-based
[10] = substrate: CC[N+](CC)(CC)CC; test: cells, lysate or membranes named

CN1CC=C(c2ccccc2)CC1
inhibition at 5000 µM (OCT3 (SLC22A3) [1]): > 90%

C[n+]1ccc(-c2ccccc2)cc1
inhibition at 5000 µM (OCT3 (SLC22A3) [2]): > 90% | Activity [3]: substrate [+] | Ki [4]: 54 µM

CN/C(=N/CCSCc1nc[nH]c1C)NC#N [CIMETIDINE]
inhibition at 5000 µM (OCT3 (SLC22A3) [5]): > 90%

Clc1cccc(Cl)c1N=C1NCCN1 [CLONIDINE]
Ki [4]: 373 µM | inhibition at 5000 µM (OCT3 (SLC22A3) [6]): > 90%

CNCCCN1c2ccccc2CCc2ccccc21 [DESIPRAMINE]
Ki [4]: 14 µM

N=C(N)N [GUANIDINE]
Inhibition [7]: inhibitor [60-70 % inhibition] | Activity [3]: substrate [+] | Ki [4]: 6200 µM

CN(C)CCCN1c2ccccc2CCc2ccccc21 [IMIPRAMINE]
Ki [4]: 42 µM

CNC(=O)c1cccnc1 [NICOTINYL METHYLAMIDE]
Inhibition [8]: inhibitor [60-70 % inhibition]

CCN(CC)CCNC(=O)c1ccc(N)cc1 [PROCAINAMIDE]
Ki [4]: 738 µM

CC[N+](CC)(CC)CC [TETRYLAMMONIUM]
Activity [9]: substrate [+] | Activity [3]: substrate [+] | Ki [4]: 1370 µM

B1: Solute carrier family 22 member 3 (Mus musculus) (protein)
chain: MPTFDQALRKAGEFGRFQRRVFLLLCLTGVTFAFLFVGVVFLGSQPDYYWCRGPRATALAERCAWSPEEEWNLTTPELHVPAERRGQGHCHRYLLEATNTSSELSCDPLTAFPNRSAPLVSCSGDWRYVETHSTIVSQFDLVCSNAWMLDLTQAILNLGFLAGAFTLGYAADRYGRLIIYLISCFGVGITGVVVAFAPNFSVFVIFRFLQGVFGKGAWMTCFVIVTEIVGSKQRRIVGIVIQMFFTLGIIILPGIAYFTPSWQGIQLAISLPSFLFLLYYWVVPESPRWLITRKQGEKALQILRRVAKCNGKHLSSNYSEITVTDEEVSNPSCLDLVRTPQMRKCTLILMFAWFTSAVVYQGLVMRLGLIGGNLYIDFFISGLVELPGALLILLTIERLGRRLPFAASNIVAGVSCLVTAFLPEGIPWLRTTVATLGRLGITMAFEIVYLVNSELYPTTLRNFGVSLCSGLCDFGGIIAPFLLFRLAAIWLELPLIIFGILASVCGGLVMLLPETKGIALPETVEDVEKLGSSQLHQCGRKKKTQVSTSDV
Km [10]: 1900 µM
